Test: Luminescence lifetime measurements for inner-sphere water molecules q (Tb complexes)
Assay type: physicochemical
Conditions: for kH2O, absolute emission depopulation rate constant: in H2O; for kH2O, absolute emission depopulation rate constant / kH2O (Table 1), absolute emission depopulation rate constant / q, hydration state: pH 6.9 (0.1 M Tris/HCl), 298 K; for kH2O, absolute emission depopulation rate constant / kH2O (Table 1), absolute emission depopulation rate constant: ±10%; for kH2O (Table 1), absolute emission depopulation rate constant: title names H2O and D2O; for q, hydration state: q^Tb = 5 (1/τH2O - 1/τD2O-0.06); for inner-sphere coordinated (bound) water molecules: luminescent measurements, pH 6.9
Excerpt: As previously mentioned, inner-sphere proton relaxivity is linearly proportional to the number of water molecules q that are directly coordinated to the Gd^3+ center. However, there is a trade-off between the q value and toxicity. […] It is noteworthy that there is no direct method of measuring the hydration number. The two commonly used indirect methods are as follows: (1) Lanthanide-induced shift (LIS) methods (see, Alpoim et al., J. Chem. Soc., Dalton Trans., 1992, 463). For paramagnetic Ln^3+ ions, the plot of the observed ^17O shift in Ln^3+ chelate solution versus the complex concentration gives a straight line, with the slope being proportional to its hydration number. (2) The lanthanide luminescence method. According to the Horrocks equation, the q value can be calculated by the emission rate constants for the depopulation of Tb^3+ or Eu^3+ complexes measured in H2O and D2O (see, Beeby at al., J. Chem. Soc., Perkin Trans. 2, 1999, 493). With this method, the q values of the Gd^3+ complexes in aqueous solution can be measured indirectly by their corresponding Tb^3+ or Eu^3+ complexes, because of the very similar coordination behavior between these three lanthanide ions.
Luminescence lifetime measurements were all obtained on a Perkin-Elmer LS 50B spectrofluorimeter with a 420 nm cut-off filter. The concentration of the complex was 1×10^−5˜1×10^−4 mol dm^−3. The emission of Tb^3+ or Eu^3+ complexes was monitored at […]. Gd^3+ is a neighbor of Eu^3+ and Tb^3+ with a nearly identical ionic radius, and thus their chemistries are virtually identical. Therefore, the Horrocks equation for determining the number of coordinated water molecules q for Eu^3+ and Tb^3+ is still valid for the calculation of the q value of Gd^3+. In general, the number of coordinated water molecules q can be determined by the measurement of the luminescent lifetime of the complexes separately in H2O and D2O by application of the Horrocks equation. q′corr=A′(kH2O−kD2O−a) where k is the constant for depopulation (reciprocal of luminescent lifetime), and A is a proportionality constant that signifies the sensitivity of the lanthanide ion to vibronic quenching by OH oscillators. a is correlation value for the consideration of the outer-sphere water molecules.

Structure (SMILES)	kH2O, absolute emission depopulation rate constant [ms^−1]	kH2O (Table 1), absolute emission depopulation rate constant [ms^−1]	q, hydration state	inner-sphere coordinated (bound) water molecules
O=C([O-])CN1CCNCCN(CC(=O)[O-])CCN(CC(=O)[O-])CC1.[Tb+3] [Tb-DO3A, reference compound]	0.88	0.42	2.0	–
O=C([O-])CN1CCN(CCN2CCOCCOCCOCCOCC2)CCN(CC(=O)[O-])CCN(CC(=O)[O-])CC1.[Tb+3] [TbL1]	0.72	0.34	1.6	two

More lines, now with the values ahead:

kH2O, absolute emission depopulation rate constant [ms^−1]	kH2O (Table 1), absolute emission depopulation rate constant [ms^−1]	q, hydration state	inner-sphere coordinated (bound) water molecules	Structure (SMILES)
0.48	0.27	0.8	–	O=C([O-])CN1CCN(CC(=O)[O-])CCN(CC(=O)[O-])CCN(CC(=O)[O-])CC1.[Tb+3] [Tb-DOTA, reference compound]
0.74	0.35	1.7	two	O=C([O-])CN1CCN(CCOCC2COCCOCCOCCOCCO2)CCN(CC(=O)[O-])CCN(CC(=O)[O-])CC1.[Tb+3] (stereo not drawn) [TbL2]
0.50	0.31	0.7	one	O=C([O-])CN1CCN(CC(=O)[O-])CCN(CC(=O)N2CCOCCOCCN(Cc3ccc4ccccc4n3)CCOCCOCC2)CCN(CC(=O)[O-])CC1.[Tb+3] [TbL3]
